Reference: ChEMBL document CHEMBL1156666, “Jerantinines A-G, cytotoxic Aspidosperma alkaloids from Tabernaemontana corymbosa” (J Nat Prod, 2008)

Assays:
[1] = Cytotoxicity against vincristine resistant human KB/VJ300 cells; type: functional, cell-based
[2] = Cytotoxicity against vincristine sensitive human KB/S cells; type: functional, cell-based

Compound	IC50 [1]	IC50 [2]
CC[C@]1(O)C[C@H]2CN(CCc3c([nH]c4ccccc34)[C@@](C(=O)OC)(c3cc4c(cc3OC)N(C=O)[C@H]3[C@@](O)(C(=O)OC)[C@H](OC(C)=O)[C@]5(CC)C=CCN6CC[C@]43[C@@H]65)C2)C1 [VINCRISTINE]	1200 nM	5.4 nM
COC(=O)C1=C2Nc3cc(OC)c(O)cc3[C@@]23CCN2CC[C@@H]4OCC[C@]4(C1)[C@H]23 [JERANTININE F]	12300 nM	12800 nM
CC[C@]12CCCN3CC[C@]4(C(=C(C(=O)OC)C1)Nc1cc(OC)c(O)cc14)[C@@H]32 [JERANTININE E]	2030 nM	2550 nM
CC[C@@]12CC(C(=O)OC)=C3Nc4cc(OC)c(O)cc4[C@@]34CCN(C(=O)[C@@H]3O[C@@H]31)[C@@H]24 [JERANTININE D]	950 nM	680 nM
CC[C@@]12CC(C(=O)OC)=C3Nc4cc(OC)c(OC)cc4[C@@]34CCN(C[C@@H]3O[C@@H]31)[C@@H]24 [10-O-METHYLJERANTININE B]	10700 nM	7360 nM
CC[C@@]12CC(C(=O)OC)=C3Nc4cc(OC)c(O)cc4[C@@]34CCN(C[C@@H]3O[C@@H]31)[C@@H]24 [JERANTININE B]	950 nM	1110 nM
CC[C@]12C=CCN3CC[C@]4(C(=C(C(=O)OC)C1)Nc1cc(OC)c(O)cc14)[C@@H]32 [JERANTININE A]	1730 nM	1990 nM
CC[C@]12C=CCN3CC[C@]4(C(=C(C(=O)OC)C1)Nc1cc(OC)c(OC(C)=O)cc14)[C@@H]32 [JERANTININE A ACETATE]	830 nM	1040 nM
CC[C@@]12CC(C(=O)OC)=C3Nc4cc(OC)c(OC(C)=O)cc4[C@@]34CCN(C[C@@H]3O[C@@H]31)[C@@H]24 [JERANTININE B ACETATE]	750 nM	700 nM
CC[C@]12C=CC(=O)N3CC[C@]4(C(=C(C(=O)OC)C1)Nc1cc(OC)c(O)cc14)[C@@H]32 [JERANTININE C]	1540 nM	810 nM
CC[C@]12C=CCN3CC[C@]4(C(=C(C(=O)OC)C1)Nc1cc(OC)c(OC)cc14)[C@@H]32 [10-O-METHYLJERANTININE A]	13600 nM	12000 nM
